What was measured:
[1] = system: QN-sensitive P. yoelii (K); assay: In vivo synergism T3.5 and quinine, 6-day Thompson test in mice; conditions: alone or fixed-ratio combination (dose of each)
Description: In vivo synergism was assessed using the 6-day Thompson test in mice infected with QN-sensitive P. yoelii (K), comparing the efficacy of T3.5 alone, QN alone and T3.5:QN combinations (Table 7). Dosages were established using a rigorous fixed-ratio combination dosing protocol and results were assessed using Calcusyn software to determine synergy. As in the case of the in vitro combination, there was evident in vivo synergism.

[2] = Metabolic stability and fate in hepatic S9 fraction with NADPH; format: in vitro ADME, murine; conditions: 50 μM, NADPH 1 mM, 10, 30 and 60 min
Description: This example investigates the metabolic stability and fate of T3.5 in the presence of NADPH and a murine hepatic S9 fraction. Hepatic S-9 fractions were incubated with 50 μM T3.5 in the presence of NADPH (1 mM) for 10, 30 and 60 min. HPLC was conducted with a Hypersil Gold column that is stable at high pH. […] The full scan mass spectrum had the isotopic ratio expected for the chlorine substituted acridone ring. […] The two unresolved peaks most likely represent de-ethylation of the tertiary amine on each side chain.
A second de-ethylation also occurred with the prolonged incubation as evidenced by the peak at 17.5 min when monitored at m/z 388.1 (loss of m/z=56). Another dealkylated metabolite was monitored at m/z 345.1 and corresponds to the loss of the triethylamine side chain (loss of m/z=99) from the acridone ring. The dealkylation could occur from either the aryl ether side chain or from the acridone ring nitrogen. The later would result in the production of the active compound T2. […] In addition to the dealkylated products, a hydroxylated metabolite was also detected by monitoring at m/z 460.2 (addition of m/z=16). The hydroxylation could occur on the acridone ring or on one of the primary carbons on the ethylamine side chains. Further MS/MS experiments will help establish the site of hydroxylation.

- most abundant metabolites [2]: de-ethylated products
Structure (SMILES): CCN(CC)CCOc1ccc2c(=O)c3ccc(Cl)cc3n(CCN(CC)CC)c2c1 [T3.5, 3-(2-diethylaminoethoxy)-6-chloro-10-(2-diethylaminoethyl)-9-acridone]
- ED50 dose [1]: 56 mg/kg/day
- ED75 dose [1]: 70 mg/kg/day
- ED90 dose [1]: 88 mg/kg/day
